In ChEMBL document CHEMBL1147786, “Synthesis and evaluation of a mechanism-based inhibitor of a 3-deoxy-D-arabino heptulosonate 7-phosphate synthase” (Bioorg Med Chem Lett, 2006) one finds IC50 data, which are given here for one compound.

The assay in a line: Inhibition of Escherichia coli DAH7P synthase.

Take `O=C(O)CN(C[C@H](O)[C@@H](O)[C@@H](O)COP(=O)(O)O)CP(=O)(O)O`: the half-maximal inhibitory concentration (IC50) (usually the concentration at which inhibition is half-maximal) worked out at 6.6 µM. That is a single-digit micromolar value.
